The record followed here is patent publication US20220280561A1, “COPPER-ATSM FOR TREATING NEURODEGENERATIVE DISORDERS ASSOCITED WITH MITOCHONDRIAL DYSFUNCTION” (RESEARCH INSTITUTE AT NATIONWIDE CHILDREN'S HOSPITAL, priority 2019, published 2022).

Common to all, as to assay type: cell-based, human
The test system of one assay is SCN2A iAstrocytes. As to the kind of experiment: Seahorse basal and ATP-linked respiration, SCN2A iAstrocytes. To be noted: SCN2A iAstrocytes vs corresponding untreated controls; restored to healthy levels. As for the experimental part:
Astrocytes treated with and without CuATSM were seeded on a 96 well Seahorse plate for extracellular flux analysis. Basal oxygen consumption (FIG. 6A) was measured at three time points followed by ATP synthase inhibition using oligomycin. The difference between basal respiration and oligomycin addition was used to calculate ATP linked respiration (FIG. 6B). […] All experiments were run at least in duplicate. Statistical analysis comparing treated and untreated individual patient lines was performed using student T-test.
Mitochondrial function: Induced astrocytes were seeded on 24 well seahorse plates in quadruplicate or a 96 well seahorse plate in quintuplicate as summarized in FIG. 9C. Twenty-four hours later media was replaced with seahorse base media containing 10 Mm glucose and 2 Mm glutamine. Oligomycin (1 Um), FCCP (5 Um) and antimycin A (10 Um) were injected separately to evaluate oxygen consumption following inhibition of the ATPase synthase, mitochondrial uncoupling and total shutdown of the electron transport chain. Alternatively, iAstrocyte media was replaced with a mitochondrial buffer (220 Mm mannitol, 70 Mm sucrose, 10 Mm KH2PO4, 5 Mm Hepes, 1 Mm EGTA and 0.2% Fatty acid free BSA) to measure complex IV dependent oxygen consumption. […] Oxygen consumption was measured in both assays using the Seahorse XF and Seahorse XFe. […]

Assay [1] deals with SCN2A iAstrocytes co-cultured with mouse neurons. As to the kind of experiment: co-culture of CuATSM-pretreated SCN2A iAstrocytes with mouse GFP neurons. To be noted: 3 days in culture. On the procedure:
FIG. 8A) Schematic protocol of iNeuron reprogramming from patient fibroblasts. Fibroblast cells were seeded on 12-well plates and differentiated for 7 days into iNeurons. iNeurons were fixed and imaged/immunostained for Tuj1 neuronal marker. FIG. 8B) Representative images of fibroblasts (before) and iNeurons after reprogramming. FIG. 8C) Representative bright field images of iNeurons following seven days of differentiation (scale bar=50 μm). On day five of differentiation, cells were treated with 0.01% of CuATSM as well as on day seven. FIG. 8D) Quantification of neuron survival percentage after seven days of differentiation. Tuj1 positive cells from three to five different images per line were counted and data was normalized to the average count of healthy control. FIG. 8E) Schematic of drug screen co-culture assay. Astrocytes were treated during differentiation with CuATSM. […] 24 hours later mouse neurons were seeded on top of astrocyte monolayer and viability was determined following 3 days in culture. […]
The effect of CuATSM treatment on SCN2A iAstrocytes mediated neuron toxicity was investigated. […] Neuron survival was quantified following seven days of differentiation by counting cells with neurites two times the soma length. […] Twenty-four hours later, motor neurons were seeded on top of the astrocyte monolayer and viability was determined following 3 days in culture. […]

A further assay relates to iNOS. The assay can be described thus: western blot of iNOS levels in iAstrocytes. On the procedure: Western blotting: iAstrocyte pellets were lysed in RIPA or IP buffer and with sonication or freeze thaw respectively. 50 ug of protein was loaded into precast gels and separated by electrophoresis. Protein was then transferred to a PVDF membrane, blocked with odyssey blocking buffer (Licor) and incubated with primary antibody overnight. The following day membranes were washed and incubated with Licor secondary antibodies for one hour at room temperature. Membranes were imaged using Odyssey CLx.
Since nitric oxide is produced by inducible nitric oxide synthase (iNOS), the overall levels of iNOS was quantified by western blot. While CuATSM had no effect on nitric oxide synthase levels for most patient lines, there were two lines (ALS4 and ALS6) where these levels were reduced (FIGS. 4C and 4D). […] Thus iNOS and nitric oxide production are not mediating the therapeutic effect of CuATSM.
Background: A western blot detects proteins with antibodies after separation by electrophoresis.

The test system of assay [2] is IRF2BPL astrocytes co-cultured with neurons. As to the kind of experiment: co-culture of CuATSM-pretreated IRF2BPL astrocytes with neurons. The settings on record: astrocytes treated starting day 2 of differentiation; 3 days in culture. As for the experimental part: FIG. 20A) Schematic of drug screen co-culture assay. FIG. 20B) Representative image of neurons following 3 days in co-culture. FIG. 20C) Quantification of neuron survival following co-culture show reduced survival with IRF2BPL astrocytes. […] Data was normalized to average neuron survival of healthy controls. Data represents a minimum of 2 independent experiments. Statistical analysis was performed using unpaired t-test to corresponding untreated controls. Treatment with CuATSM indicates potential improvement in motor neuron survival for NEDAMSS patients (p<0.0001).
Astrocytes were treated with CuATSM starting day 2 of differentiation and then seeded in a 96 well plate in the absence of CuATSM to form a monolayer. Twenty hours later neurons were seeded on top of astrocyte monolayer and viability was determined following 3 days in culture (FIG. 20B). Motor neuron survival following co-culture was determined by quantifying the number of surviving neurons.

For the compound `CN=C([S-])N/N=C(C)/C(C)=N/NC([S-])=NC.[Cu+2]` [CuATSM, diacetyl-bis(4-methylthiosemicarbazonato) copperII], the ATP-linked respiration entry with SCN2A iAstrocytes is “reduced”. In addition, the basal respiration result in the assay with SCN2A iAstrocytes is given as “reduced”. For the same compound, the “neuron survival following co-culture” value in assay [1] (SCN2A-1 and SCN2A-3 iAstrocytes pretreated during differentiation) is reported as “significantly increase neuron survival”; in assay [1] (SCN2A-2 iAstrocytes pretreated during differentiation), “trend towards increased survival”. In addition, the “nitric oxide synthase (iNOS) levels” value in the assay with iNOS (lines ALS4 and ALS6) is recorded as “reduced”; with iNOS (most patient lines) it was “no effect”. Also, in assay [2], the “neuron survival following co-culture (astrocyte toxicity to neurons)” value is “prevented this toxicity”.
